{"source": "patent US5374623A", "about": "“Cysteine protease inhibitors effective for in vivo use” (Prototek, Inc., priority 1992, dated 1994)", "key": {"[1]": {"tested_on": "45Ca2+-labelled bones (calvaria) of neonatal mice", "experiment": "Parathyroid hormone-stimulated 45Ca2+ release from cultured mouse calvaria", "format": "cell-based", "conditions": "24 hour period, PTH-stimulated", "method": "(§1) Treatment of Osteo Arthritis with Mu-Phe-HPhe-O-Ph. ^45 Ca^2+ -labelled bones (calvaria) of neonatal mice were maintained in culture. The effect of the test compound on the rate of parathyroid hormone-stimulated ^45 Ca^2+ release was measured over a 24 hour period. An inhibitor of bone resorption (at maximal concentrations) would be expected to inhibit this rate by approximately 70%. The nature of the residual, uninhibitable ^45 Ca^2+ -release is not known but could represent chemical exchange of ^45 Ca^2+ with the medium. Mu-Phe-HPhe-O-Ph was dissolved in dimethylsulphoxide which was present in the incubation at concentrations <0.1%.\nas §1, with “Mu-Leu-HPhe-O-Ph.” for “Mu-Phe-HPhe-O-Ph.”, “Mu-Leu-HPhe-O-Ph” for “Mu-Phe-HPhe-O-Ph”\nas §1, with “Mu-Tyr(OMe)-HPhe-O-Ph.” for “Mu-Phe-HPhe-O-Ph.”, “Mu-Tyr(OMe)-HPhe-O-Ph” for “Mu-Phe-HPhe-O-Ph”\nas §1, with “Z-Phe-Ala-O-Ph.” for “Mu-Phe-HPhe-O-Ph.”, “Z-Phe-Ala-O-Ph” for “Mu-Phe-HPhe-O-Ph”\nas §1, with “Mu-Tyr(OMe)-HPhe-O-Ph.” for “Mu-Phe-HPhe-O-Ph.”, “labelled” for “-labelled”, “Mu-Tyr(OMe)-HPhe-O-Ph” for “Mu-Phe-HPhe-O-Ph”"}, "[2]": {"target": "Soluble extracts of P. falciparum (cysteine proteinase)", "experiment": "Proteolytic activity of P. falciparum soluble extracts, substrate Z-Phe-Arg-AFC", "format": "biochemical", "conditions": "read-out: IC50, proteolytic activity of P. falciparum extract", "experimental": "Soluble extracts of P. falciparum and P. vinckei were prepared and proteolytic activity was assayed with fluorogenic peptide substrate Z-Phe-Arg-AFC. […] The concentrations at which activity was inhibited by 50% (IC50) was calculated.\nSoluble extracts of P. falciparum and P. vinckei were prepared and proteolytic activity was assayed with fluorogenic peptide substrate Z-Phe-Arg-AFC. […] The concentration at which activity was inhibited by 50%. (IC50) was calculated.\nSoluble extracts of P. falciparum and P. vinckei were prepared and proteolytic activity was assayed with fluorogenic peptide substrate Z-Phe-Arg-AFC. […] The concentration at which activity was inhibited by 50% (IC50) was calculated.\nThe concentration at which activity was inhibited by 50% (IC50) was calculated."}}, "note": "pIC50: −log10 of the molar value."}
{"compound": "O=C(O)Cc1ccccc1OCC(=O)[C@H](CCc1ccccc1)NC(=O)[C@H](Cc1ccccc1)NC(=O)N1CCOCC1", "note": "[Mu-Phe-HPhe-O-Ph, (4-morpholinylcarbonyl)-L-phenylalanyl-L-homophenylalanyl-(2-carboxymethyl)phenoxymethyl ketone]", "values": [{"measurement": "inhibition of the rate of 45Ca2+-release", "setting": "[1]; 1 μm inhibitor", "result": 50, "unit": "%"}, {"measurement": "additional inhibition of the rate of 45Ca2+-release", "setting": "[1]; 100 μm inhibitor", "result": 20, "unit": "%"}, {"measurement": "pIC50", "setting": "[2]", "result": 8.52}]}
